ChEMBL document CHEMBL1134194, “Anti-HIV activity of aromatic and heterocyclic thiazolyl thiourea compounds” (Bioorg Med Chem Lett, 2001)
Structures can show the parent of a compound that is named as a salt.

Assays:
[1] = target: Human immunodeficiency virus type 1 reverse transcriptase (Human immunodeficiency virus 1, UniProt Q72547, K103N/Y181C); test: Inhibitory activity against non-nucleoside reverse transcriptase inhibitors (NNRTI) -resistant HIV-1 strain A17 variant with Y181C plus K103N mutations in RT (reverse transcriptase)
[2] = Cytotoxic concentration was evaluated against human peripheral blood mononuclear cells (PBMC); format: functional
[3] = tested on: Human immunodeficiency virus 1; test: Tested for the ability to inhibit the replication of HIV-1 strain HTLV IIIB in human peripheral blood mononuclear cells (PBMC); format: functional, organism-based
[4] = tested on: Human immunodeficiency virus 1; test: Selectivity index was determined; format: functional

SMILES | IC50 [1] [µM] | CC50 [2] [µM] | IC50 [3] [µM] | Selectivity index [4]
S=C(NCCc1cccs1)Nc1ccc(Br)cn1 | 3.3 | > 100 | – | –
Oc1ccc(CCNC(=S)Nc2ccc(Br)cn2)cc1 | > 100 | > 100 | 0.007 | –
S=C(NCCc1ccccn1)Nc1nccs1 | – | 100 | 1 | 100
S=C(NCCC1=CCCCC1)Nc1nccs1 | > 100 | – | – | –
S=C(NCc1ccco1)Nc1nccs1 | 0.6 | > 100 | < 0.001 | >100000
Cc1ccc(CC/N=C(\S)Nc2nccs2)cc1 | > 100 | > 100 | 0.07 | 1429
S=C(NCC12CC3CC(CC(C3)C1)C2)Nc1nccs1 | 1.3 | 40 | < 0.001 | 40000
CCC(NC(=S)Nc1nccs1)c1ccccc1 (stereo unspecified) | 1.5 | – | – | –
Oc1ccc(CC/N=C(\S)Nc2nccs2)cc1 | – | – | > 100 | –
S=C(NCCN1CCCCC1)Nc1nccs1 | – | – | > 100 | –
S=C(NCCc1cccs1)Nc1nccs1 | – | 71 | < 0.001 | 71000
S=C(NCCOc1ccccc1)Nc1nccs1 | > 100 | > 100 | < 0.001 | >100000
S=C(NCCc1c[nH]c2ccccc12)Nc1nccs1 | 3.7 | 28 | < 0.001 | 28000
S=C(NCCCn1ccnc1)Nc1nccs1 | > 100 | 35 | < 0.001 | 35000
CC(C)Nc1cccnc1N1CCN(C(=O)c2cc3cc(NS(C)(=O)=O)ccc3[nH]2)CC1 [DELAVIRDINE MESYLATE] | – | – | 0.009 | –
Cc1ccnc2c1NC(=O)c1cccnc1N2C1CC1 [NEVIRAPINE] | – | – | 0.034 | –
